Results as given in patent US11499978B2, “Method for measuring quality of therapeutic cell through real-time glutathione measurement” (CELL2IN, INC., priority 2017, dated 2022).

How the values were obtained:
hUC-MSCs [1] = assay: CFU-F assay of hUC-MSCs; format: cell-based, human; details: 125 or 250 μg/mL AA2G for three days, n=3
Protocol: The inventors observed an effect of the material on stem cells by treating each stem cells with a material for enhancing a glutathione evaluation parameter. When hUC-MSCs were subcultured in a L-AA2G-containing medium, CFU-F, migration capacity, and an anti-inflammatory effect were observed. A CFU-F assay (n=3) was performed by treating hUC-MSCs with 125 or 250 μg/mL of AA2G for three days. As shown in FIGS. 16A and 16B, it was confirmed that, when AA2G was treated, CFU-F increased. In addition, as hUC-MSCs were treated with 125 or 250 μg/mL of AA2G for three days, PDGF-AA-induced migration capacity (n=3) was analyzed. As shown in FIGS. 17A and 17B, it was confirmed that the migration capacity was increased by AA2G treatment. In addition, the reduction in T cell proliferation, the reduction in T cell differentiation, and the promotion of Treg cell differentiation were observed by treating hUC-MSCs with 125 or 250 μg/mL of AA2G for three days. […] Meanwhile, hUC-MSCs were cultured with a glutathione precursor such as γ-glutamyl cysteine (GGC, 0.1, 0.25, and 0.5 mM). A CFU-F assay (n=3) was performed by treating hUC-MSCs with each concentration of GGC for 2 hours. […] In addition, SDF1α and PDGF-AA-induced migration capacities (n=3) were analyzed for hUC-MSCs without treatment with GGC, and SDF1α and PDGF-AA-induced migration abilities (n=3) were analyzed by treating hUC-MSCs with the increasing concentrations of GGC. STI571 was used as a PDGFR kinase inhibitor. As shown in FIGS. 20A to 20C, it was confirmed that, according to an increase in GGC treatment concentration, SDF1α- and PDGF-AA-induced migration capacities were enhanced. A CFU-F assay (n=3) was performed by treating hUC-MSCs with 0.2, 1, 2, and 4 μM ferrostatin-1 and 0.1, 0.5, 1, and 2 μM liproxstatin-1 for 24 hours.

T cells = assay: Anti-inflammatory effect of treated hUC-MSCs on T cells; format: cell-based; details: hUC-MSCs treated with 125 or 250 μg/mL AA2G for three days
Protocol: The inventors observed an effect of the material on stem cells by treating each stem cells with a material for enhancing a glutathione evaluation parameter. When hUC-MSCs were subcultured in a L-AA2G-containing medium, CFU-F, migration capacity, and an anti-inflammatory effect were observed. A CFU-F assay (n=3) was performed by treating hUC-MSCs with 125 or 250 μg/mL of AA2G for three days. As shown in FIGS. 16A and 16B, it was confirmed that, when AA2G was treated, CFU-F increased. In addition, as hUC-MSCs were treated with 125 or 250 μg/mL of AA2G for three days, PDGF-AA-induced migration capacity (n=3) was analyzed. As shown in FIGS. 17A and 17B, it was confirmed that the migration capacity was increased by AA2G treatment. In addition, the reduction in T cell proliferation, the reduction in T cell differentiation, and the promotion of Treg cell differentiation were observed by treating hUC-MSCs with 125 or 250 μg/mL of AA2G for three days.
In addition, hUC-MSCs were cultured with ferrostatin-1 (0.2, 1, 2 and 4 μM) and liproxstatin-1 (0.1, 0.5, 1 and 2 μM), which control a glutathione level in cells by inhibiting lipid oxidation. […] Meanwhile, the hUC-MSCs were treated with 1 μM ferrostatin-1 for 24 hours, 0.2 mM GGC for 2 hours, and 2 mM GSH-EE for 2 hours. As a result, the reduction in T cell proliferation ability and the reduction in T cell differentiation capacity were observed, and promotion of Treg cell differentiation was observed.

hUC-MSCs [2] = assay: FreSH-Tracer-based glutathione regeneration capacity (GRC) in hUC-MSCs; parameters: species or system human; details: hUC-MSCs subcultured three times with AA2G 250 μg/mL; low concentration of diamide; compared with naive cell group
Protocol: GRC refers to a value obtained by real-time monitoring of FR after living cells are treated with an oxidizing agent, as calculated by dividing a value obtained by subtracting AUC of a group treated with 0.1-100 mM N-ethylmaleimide (NEM) from FR AUC of an oxidizing agent (diamide, H2O2, etc.)-treated group by a value obtained by subtracting the AUC of NEM-treated group from AUC of the untreated control, and multiplying the resulting value by 100. The FR of the NEM-treated group is a value for increasing the sensitivity of a GRC value by treating it as the blank value of the FR of the cells of interest. […] To remove the MitoFreSH-Tracer from the medium before measurement, the medium was exchanged with fresh 10 mM HEPES-containing HBSS(Hanks' Balanced Salt Solution), and a fluorescence image was obtained using a confocal imaging system, Operetta. By comparing GSH levels quantified from control cells not treated with RSL3 or control cells before treated with RSL3, the distribution of GSH expression-changed cells was calculated. Based on the point where the distribution histogram is divided into two peaks, the cells were divided into GSH^High cells (right peak) and GSH^Low cells (left peak), and then a ratio of corresponding cells was expressed as a percentage (%). […]

`O=C1O[C@H]([C@@H](O)CO)C(O)=C1O[C@H]1O[C@H](CO)[C@@H](O)[C@H](O)[C@H]1O` [AA2G, ascorbic acid 2-glucoside] was tested, and the CFU-F (hUC-MSCs [1]) was “increased”, the T cell differentiation (T cells) was “reduction” and the T cell proliferation (T cells) was “reduction”. For the same compound, the Treg cell differentiation (T cells) was “promotion”, the “anti-inflammatory effect of stem cells” value (T cells) was “exhibited” and the “FreSH-Tracer-based GRC” value (hUC-MSCs [2]) was “increased”.
